We go through four compounds from US20250205244A1, “METHODS OF TREATING MIGRAINE WITH MNK INHIBITORS” (4E Therapeutics, Inc., priority 2021, published 2025).

pIC50: −log10 of the molar value.

The target in assay [1] is recombinant human kinase, MNK1 (Homo sapiens, UniProt Q9BUB5). As to the kind of experiment: MNK1 substrate phosphorylation assay. The format is biochemical.
For assay [2], the target named is recombinant human kinase, MNK2 (Homo sapiens, UniProt Q9HBH9). As to the kind of experiment: MNK2 substrate phosphorylation assay. The format is biochemical.
Assay [3] relates to eIF4E phosphorylation at Serine 209 in the human embryonic kidney (HEK) 293 cell line. Put plainly: Inhibition of eIF4E phosphorylation in HEK293 cells (phospho-specific antibody, fluorescent plate reader). The following applies: HEK293, 2 h, eIF4E phosphorylation at Serine 209, HEK293 cells, 2 hours exposure. The format is cell-based. The method, then: The ability of MNK inhibitors described herein to inhibit eIF4E phosphorylation at Serine 209 in the human embryonic kidney (HEK) 293 cell line was tested by exposing the cells to compound for 2 hours and then measuring eIF4E phosphorylation with a phosphorylation-specific antibody in a fluorescent plate reader. These experiments were done with HEK-293 cells plated on 96 well plates. Following treatment, cells were fixed with ice cold methanol for 10 min and then washed in 1× phosphate buffered saline (PBS) and the permeabilized with 0.02% Triton X-100 in 10% normal goat serum made up in PBS. Primary antibody was applied overnight at a concentration dilution of 1:2000 (p-eIF4E antibody from Cell Signaling ab76256). Following washing, cells were then exposed to secondary antibody conjugated to alexa-fluor 488 and then visualized on a Syngergy HTX plate reader. Fluorescence for p-eIF4E was measured and normalized to total DAPI fluorescence to determine the percentage of eIF4E phosphorylation in each well. Data were plotted in Graphpad Prism V8 to determine concentration-response effects and calculate IC50 values.

Another assay relates to WT mice, dural IL-6. As to the kind of experiment: Dural IL-6-induced acute facial hypersensitivity and grimace in mice. The format is in vivo, mouse. The settings on record: female and male WT mice; 10 mg/kg oral gavage prior to dural IL-6 (0.1 ng); compared to the vehicle group. The source says: Female and male MNK1 KO mice were a gift of the Sonenberg laboratory at McGill University and bred at the University of Texas at Dallas (UTD) to generate experimental animals (Ueda T, et al., MNK2 and MNK1 are essential for constitutive and inducible phosphorylation of eukaryotic initiation factor 4E but not for cell growth or development. Mol Cell Biol. August 2004). Genotype was confirmed at weaning using DNA from ear clips. Experimental C57BL6/J wild-type (WT) animals were obtained from an internally maintained C57BL/6 J colony at the University of Texas at Dallas. For pharmacological studies, female and male ICR (CD-1) mice aged 6-8 weeks (˜25-30 g) were outbred and purchased from Envigo. All mice were housed in groups of four animals per cage on a 12-hour light-dark cycle and had access to food and water ad libitum. Upon arrival to the animal care facility, animals were allowed a minimum of 72 hours to acclimate to their new environment before being handled for experiments. All experiments were performed between the hours of 9:00 AM and 5:00 PM. All procedures were conducted with prior approval of the Institutional Animal Care and Use Committee at the University of Texas at Dallas.
For dural injections, human recombinant interleukin-6 (IL-6) protein (R&D Systems) stock solution ([…]) was prepared in sterile 0.1% BSA and diluted to 1 ng/ml in synthetic interstitial fluid (SIF) consisting of 135 mM NaCl, 5 mM KCl, 10 mM HEPES, 2 mM CaCl2), 10 mM glucose, 1 mM MgCl2 (pH 7.4, 310 mOsm). Sodium nitroprusside (SNP) (Sigma-Aldrich) was prepared fresh in sterile phosphate buffered saline (PBS) at the time of use and was kept away from light. To test for the presence of hyperalgesic priming, mice were given a 150 μL IP injection of 0.1 mg/kg of SNP or a 5 μL dural injection of SIF solution that was brought to a pH of 7.0, as previously described (Avona A., et al., Repetitive stress in mice causes migraine-like behaviors and CGRP-dependent hyperalgesic priming to a migraine trigger. Pain. (2020); Burgos-Vega C. C. et al., Non-invasive dural stimulation in mice: A novel preclinical model of migraine. Cephalalgia. (2019)). […] MNK inhibitors were given orally to WT mice at 10 mg/kg approximately 1 hr prior to dural IL-6 or dural pH 7.0.
Mouse dural injections were performed as previously described (Burgos-Vega C. C. et al., Non-invasive dural stimulation in mice: A novel preclinical model of migraine. Cephalalgia. (2019)). Mice were anesthetized under isoflurane for <2 min with <2.5-3% isoflurane via a chamber and given a 5 μL injection via a modified internal cannula (Invivo1, part #8IC313ISPCXC, Internal Cannula, standard, 28 gauge, fit to 0.5 mm). […]

Assay [4] has as its system WT mice, dural pH 7.0 after dural IL-6. As to the kind of experiment: Hyperalgesic priming to dural pH 7.0 after dural IL-6 in mice. The format is in vivo, mouse. The settings on record: female and male WT mice. The source says:
Female and male MNK1 KO mice were a gift of the Sonenberg laboratory at McGill University and bred at the University of Texas at Dallas (UTD) to generate experimental animals (Ueda T, et al., MNK2 and MNK1 are essential for constitutive and inducible phosphorylation of eukaryotic initiation factor 4E but not for cell growth or development. Mol Cell Biol. August 2004). Genotype was confirmed at weaning using DNA from ear clips. Experimental C57BL6/J wild-type (WT) animals were obtained from an internally maintained C57BL/6 J colony at the University of Texas at Dallas. For pharmacological studies, female and male ICR (CD-1) mice aged 6-8 weeks (˜25-30 g) were outbred and purchased from Envigo. All mice were housed in groups of four animals per cage on a 12-hour light-dark cycle and had access to food and water ad libitum. Upon arrival to the animal care facility, animals were allowed a minimum of 72 hours to acclimate to their new environment before being handled for experiments. All experiments were performed between the hours of 9:00 AM and 5:00 PM. All procedures were conducted with prior approval of the Institutional Animal Care and Use Committee at the University of Texas at Dallas. […]

Chain of recombinant human kinase, MNK1 (Q9BUB5 whole entry): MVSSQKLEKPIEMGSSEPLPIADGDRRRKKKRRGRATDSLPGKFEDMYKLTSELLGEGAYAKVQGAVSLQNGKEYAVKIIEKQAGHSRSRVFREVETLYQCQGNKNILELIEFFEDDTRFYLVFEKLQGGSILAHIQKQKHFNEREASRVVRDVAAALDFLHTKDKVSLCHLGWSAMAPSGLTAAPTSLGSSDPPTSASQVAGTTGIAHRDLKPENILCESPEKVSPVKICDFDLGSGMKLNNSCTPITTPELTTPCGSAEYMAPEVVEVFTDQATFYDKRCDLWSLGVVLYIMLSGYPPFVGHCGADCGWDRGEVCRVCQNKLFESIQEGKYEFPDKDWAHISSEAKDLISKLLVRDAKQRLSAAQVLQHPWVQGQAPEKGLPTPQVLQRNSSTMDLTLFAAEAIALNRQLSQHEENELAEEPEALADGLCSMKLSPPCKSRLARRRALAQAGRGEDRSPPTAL
Chain of recombinant human kinase, MNK2 (Q9HBH9 whole entry): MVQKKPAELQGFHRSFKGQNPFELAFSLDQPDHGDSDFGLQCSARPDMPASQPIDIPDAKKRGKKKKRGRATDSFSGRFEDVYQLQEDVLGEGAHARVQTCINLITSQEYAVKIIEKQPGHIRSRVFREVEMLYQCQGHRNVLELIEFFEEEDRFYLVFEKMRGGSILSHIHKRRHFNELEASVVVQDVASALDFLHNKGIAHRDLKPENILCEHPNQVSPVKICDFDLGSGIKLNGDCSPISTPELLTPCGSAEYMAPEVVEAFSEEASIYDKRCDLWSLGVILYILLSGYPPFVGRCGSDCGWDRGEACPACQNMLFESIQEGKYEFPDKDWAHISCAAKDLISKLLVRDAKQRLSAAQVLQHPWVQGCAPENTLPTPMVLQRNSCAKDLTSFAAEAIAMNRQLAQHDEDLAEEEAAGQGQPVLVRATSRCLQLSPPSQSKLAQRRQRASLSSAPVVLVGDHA

Broadly, the pIC50 is the negative decadic logarithm of the IC50, by convention in mol/L. Turning to `Cc1cc(Nc2cc(N)ncn2)c(=O)n2c1C(=O)NC21CCC2(CCC2)C1` (stereo not drawn) [4ET-01-015], the pIC50 is 7.51 in assay [1], 8.59 in assay [2] and 8.41 in assay [3].
`Nc1cc(Nc2cc(Cl)c3n(c2=O)C2(CCC4(CC4)CC2)NC3=O)ncn1` [4ET-04-023]: the pIC50 was 7.43 in assay [1], 8.73 in assay [2] and 8.92 in assay [3]. For the same compound, the “dural IL-6 induced facial grimace measures (grimace score)” value in the assay on WT mice, dural IL-6 is “significantly attenuated”.
With `Cc1cc(Nc2cc(N)ncn2)c(=O)n2c1C(=O)NC21CCCCC1` [eFT508, reference compound], in the assay with WT mice, dural IL-6, the “dural IL-6 induced facial grimace measures (grimace score)” value was “significantly attenuated” and the “dural IL-6 induced facial hypersensitivity (periorbital von Frey)” value was “significantly attenuated”. Besides, the “hyperalgesic priming to dural pH 7.0” value in assay [4] (10 mg/kg oral gavage prior to dural IL-6, later tested with dural SIF pH 7.0) is recorded as “did not prime to dural pH 7.0”. The “hyperalgesic priming to dural pH 7.0” value in assay [4] (10 mg/kg oral gavage prior to dural pH 7.0, compared to the vehicle group) is listed as “did not prime to pH 7.0”.
In the case of `Cc1cc(Nc2cc(N)ncn2)c(=O)n2c1C(=O)NC21CCCC2(CC2)CC1` (racemic) [rac-4ET-01-027, 6″-((6-aminopyrimidin-4-yl)amino)-8″-methyl-2″H-dispiro[cyclopropane-1,1′-CYCLOHEPTANE-4′,3″-imidazo[1,5-a]pyridine]-1″,5″-dione], the “dural IL-6 induced facial grimace measures (grimace score)” value in the assay on WT mice, dural IL-6 was “significantly attenuated”.
